Patent US20240269296A1, “ANTIOXIDANT NUCLEOLIPID PRODRUG, PHARMACEUTICAL COMPOSITION FOR ADMINISTRATION THEREOF, AND THERAPEUTIC USES THEREOF” (UNIVERSITE DE BORDEAUX, priority 2021, published 2024)

Tested on: keratinocytes
Test: Antioxidant effect on keratinocytes: ROS by flow cytometry with CM-H2DCFDA after solar simulator irradiation
Type: cell-based
Conditions: 2nd experiment: incubation 48 h, 0.5% w/v in the culture medium
Excerpt: The assessment of the antioxidant effect of the compositions C3 and C4 according to the invention has been based on the dosage of the amount of reactive oxygen species (ROS) produced in the medium by flow cytometry, after setting the cells treated with these compositions in presence with the oxidative stress indicator CM-H2DCFDA (5-(and-6)-chlorométhyl-2′,7′-dichlorodihydrofluorescein diacetate, acetyl ester) (Invitrogen®). By cleavage of its acetate groups with esterases and its intracellular oxidation by the ROS, this non-fluorescent indicator is converted into highly-fluorescent dichlorofluorescein 2′,7′ (DCF). Thus, the measurement of the fluorescence intensity allows deducing the amount of DCF, and consequently of ROS, in the cell medium. […]
Afterwards, the cells have been detached by tryptinisation by means of trypsin at 0.0025% and EDTA at 0.01% for 10 min at 37° C., neutralised by fetal calf serum at 10% and separated from the medium by centrifugation. […] Afterwards, the fluorescence has been read by a flow cytometer Accuri® 6.
The obtained results, expressed in % of mean fluorescence intensity (MFI) with respect to the non-irradiated (and without C4) control condition, are shown in FIG. 11. […]

Cc1c(C)c2c(c(C)c1O)CC[C@@](C)(CCC[C@H](C)CCC[C@H](C)CCCC(C)C)O2 [α-tocopherol]
production of ROS (% of mean fluorescence intensity vs non-irradiated control): strongly inhibits the production of ROS
